Consider one compound from paper PMC5919610, “Structural basis of product inhibition by arabinose and xylose of the thermostable GH43 β-1,4-xylosidase from Geobacillus thermoleovorans IT-08” (PLoS ONE, 2018).

Structures are written as SMILES.

For this assay, the target named is T1, Xyl (GH43 β-1,4-xylosidase from Geobacillus thermoleovorans IT-08) (Geobacillus thermoleovorans, UniProt Q2I2N4).
T1 construct: complete Xyl (511 residues; 61,533 Da); E. coli BL21 (DE3), plasmid pET-xyl; one molecule per asymmetric unit, probably dimer in solution (PISA)
T1 sequence (Q2I2N4 1-511): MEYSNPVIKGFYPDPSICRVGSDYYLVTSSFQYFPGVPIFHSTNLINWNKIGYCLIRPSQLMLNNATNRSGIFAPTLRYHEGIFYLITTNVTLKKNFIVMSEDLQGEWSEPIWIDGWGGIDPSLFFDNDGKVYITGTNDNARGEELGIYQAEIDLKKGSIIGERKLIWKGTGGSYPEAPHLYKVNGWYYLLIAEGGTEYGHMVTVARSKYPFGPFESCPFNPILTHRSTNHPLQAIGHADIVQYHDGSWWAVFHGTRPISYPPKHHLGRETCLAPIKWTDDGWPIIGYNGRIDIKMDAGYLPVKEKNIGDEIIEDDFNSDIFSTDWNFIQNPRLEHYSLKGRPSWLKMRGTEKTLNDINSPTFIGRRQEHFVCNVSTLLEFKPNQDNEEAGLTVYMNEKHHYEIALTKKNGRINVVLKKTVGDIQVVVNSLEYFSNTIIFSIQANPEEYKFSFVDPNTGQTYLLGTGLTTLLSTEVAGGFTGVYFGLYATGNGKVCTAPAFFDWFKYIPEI
As to the kind of experiment: X-ray crystal structure of soaked crystal. As to conditions: 500 mM L-arabinose soak, 10 min, pH 7.0, 283 K; 2.10 Å; active site subsite -1; same site in ternary complex with D-xylose (5Z5I, 1.70 Å). The class given is binding.

Take `OC[C@@H]1O[C@H](O)[C@H](O)[C@H]1O` [L-arabinose]: the “X-ray crystal structure of soaked crystal” value was “arabinose was only found in subsite -1”.
